Test results published in BindingDB's records for doi:10.1021/acsmedchemlett.0c00369 (Shenyang Pharmaceutical University, 2021).

Molecular target: Histone deacetylase 2 (Homo sapiens, UniProt Q92769)
Experiment: Inhibition of recombinant full length C-terminal FLAG-tagged human HDAC2 expressed in baculovirus infected Sf9 cells using Boc-Lys(Ac)-AMC as substrate preincubated for 15 mins followed by substrate addition and measured after 60 mins by fluorescence based assay

Histone deacetylase 2, sequence (Q92769 whole entry): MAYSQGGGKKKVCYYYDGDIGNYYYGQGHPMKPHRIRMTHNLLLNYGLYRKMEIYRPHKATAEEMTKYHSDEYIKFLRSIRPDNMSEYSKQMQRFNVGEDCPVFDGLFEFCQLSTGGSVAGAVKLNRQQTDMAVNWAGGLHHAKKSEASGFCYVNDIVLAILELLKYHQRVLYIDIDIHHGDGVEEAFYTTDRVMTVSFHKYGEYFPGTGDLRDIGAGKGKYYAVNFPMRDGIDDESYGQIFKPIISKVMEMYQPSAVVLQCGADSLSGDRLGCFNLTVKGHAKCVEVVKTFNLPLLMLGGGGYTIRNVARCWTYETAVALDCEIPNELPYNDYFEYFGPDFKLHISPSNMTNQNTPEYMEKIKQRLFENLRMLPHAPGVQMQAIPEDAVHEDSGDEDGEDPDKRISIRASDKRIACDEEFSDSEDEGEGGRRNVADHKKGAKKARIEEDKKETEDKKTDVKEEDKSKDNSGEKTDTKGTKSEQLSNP

O=NC(Cc1ccc(O)c(Br)c1)C(=O)NCCSSCCNC(=O)C(Cc1ccc(O)c(Br)c1)N=O (stereo unspecified) [3-(3-bromo-4-hydroxy-phenyl)-N-[2-(2-{3-(3-bromo-4-hydroxy-phenyl)-2-[hydroxyimino]-propionylamino}-ethyldisulfanyl)-ethyl]-2-[hydroxyimino]-propionamide]
IC50: 33 nM
